{"source": "paper PMC9945734", "about": "(BMC Medicine, 2023)", "test_system": "PC-3-KQ and PC-3-KR cells", "assay": "RNA-sequencing and differential gene expression", "assay_type": "cell-based, human", "parameters": "CEP19 tpm_KQ_NTZ / CCNA1 tpm_KQ_NTZ / BTN3A3 tpm_KQ_NTZ / CAPSL tpm_KQ_NTZ / CELF3 tpm_KQ_NTZ / C5orf63 tpm_KQ_NTZ / tpm MSMP / tpm MYH7B / tpm CACNG8 / CNTNAP3B tpm_KQ_NTZ / IL21R tpm_KQ_NTZ / CYP8B1 tpm_KQ_NTZ / C2orf78 tpm_KQ_NTZ / CALB1 tpm_KQ_NTZ / COL4A3 tpm_KQ_NTZ / CFB tpm_KQ_NTZ / PFKFB1 tpm_KQ_NTZ / BTBD11 tpm_KQ_NTZ: scale not given here", "key": {"[1]": {"settings": "PC-3-KQ cells with NTZ, RNA-Seq, replicates 1-3, listed as NTZ"}}, "note": "“And” between values parts separate entries of the source, which are not always exact repeats. Identical values can stand only once.", "data": [{"smiles": "CC(=O)Oc1ccccc1C(=O)Nc1ncc([N+](=O)[O-])s1", "note": "[Nitazoxanide]", "values": [{"measurement": "reversed genes that were downregulated by KLF5^K369Q", "setting": "5 μM, 48 h", "result": 114, "unit": "genes"}, {"measurement": "reversed genes that were upregulated by KLF5^K369Q", "setting": "5 μM, 48 h", "result": 127, "unit": "genes"}, {"measurement": "differentially expressed genes whose KLF5^K369Q-modulated expression patterns were reversed", "setting": "5 μM, 48 h, of 2836 differentially expressed genes", "result": 241, "unit": "genes"}, {"measurement": "BTBD11 tpm_KQ_NTZ", "setting": "[1]", "result": "0.02343 (2×) and -0.3135"}, {"measurement": "BTN3A3 tpm_KQ_NTZ", "setting": "[1]", "result": "0.1048 and 0.06849 and 0.4183"}, {"measurement": "C2orf78 tpm_KQ_NTZ", "setting": "[1]", "result": "-0.1653 (2×) and -0.2557"}, {"measurement": "C5orf63 tpm_KQ_NTZ", "setting": "[1]", "result": "-1.246 and -0.6828 (2×)"}, {"measurement": "CALB1 tpm_KQ_NTZ", "setting": "[1]", "result": "-0.5505 and -0.5318 and -0.6014"}, {"measurement": "CAPSL tpm_KQ_NTZ", "setting": "[1]", "result": "0.1399 and 0.07957 and 0.02817"}, {"measurement": "CCNA1 tpm_KQ_NTZ", "setting": "[1]", "result": "0.2896 and 0.0474 and -0.0329"}, {"measurement": "CELF3 tpm_KQ_NTZ", "setting": "[1]", "result": "-0.6626 and -0.09641 and -1.398"}, {"measurement": "CEP19 tpm_KQ_NTZ", "setting": "[1]", "result": "-0.2178 and -0.1674 and -0.2603"}, {"measurement": "CFB tpm_KQ_NTZ", "setting": "[1]", "result": "1.072 and 0.8732 and 1.006"}, {"measurement": "CNTNAP3B tpm_KQ_NTZ", "setting": "[1]", "result": "-1.003 and -0.7486 and -1.333"}, {"measurement": "COL4A3 tpm_KQ_NTZ", "setting": "[1]", "result": "0.8606 and -0.008515 and 0.09381"}, {"measurement": "CSF1R tpm_KQ_NTZ", "setting": "[1]", "result": "-0.4278 and 0.5782 and -0.287"}, {"measurement": "CSF3 tpm_KQ_NTZ", "setting": "[1]", "result": "-0.1666 and -0.05545 and -0.03443"}, {"measurement": "CYP8B1 tpm_KQ_NTZ", "setting": "[1]", "result": "0.5351 and -0.06455 and 0.239"}, {"measurement": "CYSTM1 tpm_KQ_NTZ", "setting": "[1]", "result": "0.5286 and 0.6762 and 0.7083"}, {"measurement": "DEPTOR tpm_KQ_NTZ", "setting": "[1]", "result": "-0.1625 and 0.109 and -0.5598"}, {"measurement": "DISP1 tpm_KQ_NTZ", "setting": "[1]", "result": "0.9822 and -0.1345 and 0.01324"}, {"measurement": "DMC1 tpm_KQ_NTZ", "setting": "[1]", "result": "0.2859 and -0.2731 and -0.5992"}, {"measurement": "EFCAB6 tpm_KQ_NTZ", "setting": "[1]", "result": "-0.1794 and -0.1071 (2×)"}, {"measurement": "ESPN tpm_KQ_NTZ", "setting": "[1]", "result": "0.1813 and 0.02389 and 0.09131"}, {"measurement": "FA2H tpm_KQ_NTZ", "setting": "[1]", "result": "0.4488 and 0.5616 and 0.5267"}, {"measurement": "FAM43A tpm_KQ_NTZ", "setting": "[1]", "result": "0.03072 and -0.121 and -0.09259"}, {"measurement": "FAM83D tpm_KQ_NTZ", "setting": "[1]", "result": "-0.5519 and -0.6015 and -0.7989"}, {"measurement": "FAM178B tpm_KQ_NTZ", "setting": "[1]", "result": "0.08123 and 0.3901 and 0.3146"}, {"measurement": "FANCI tpm_KQ_NTZ", "setting": "[1]", "result": "-0.4967 and -0.5797 and -1.118"}, {"measurement": "FANCL tpm_KQ_NTZ", "setting": "[1]", "result": "-0.04507 and -0.1672 and -0.6878"}, {"measurement": "FIBCD1 tpm_KQ_NTZ", "setting": "[1]", "result": "0.8945 (2×) and 0.4936"}, {"measurement": "FLI1 tpm_KQ_NTZ", "setting": "[1]", "result": "0.163 and 0.09153 and 0.3476"}, {"measurement": "FLRT1 tpm_KQ_NTZ", "setting": "[1]", "result": "0.02501 and 0.1658 and 0.1094"}, {"measurement": "FOXI1 tpm_KQ_NTZ", "setting": "[1]", "result": "-0.2315 and -0.3686 and -0.4151"}, {"measurement": "FOXP3 tpm_KQ_NTZ", "setting": "[1]", "result": "-0.3022 and -0.9252 and -0.8607"}, {"measurement": "FRY tpm_KQ_NTZ", "setting": "[1]", "result": "0.3424 and 1.196 and 0.3898"}, {"measurement": "FUT3 tpm_KQ_NTZ", "setting": "[1]", "result": "0.2065 and 0.1078 and 0.1213"}, {"measurement": "FZD4 tpm_KQ_NTZ", "setting": "[1]", "result": "-0.8248 and -0.9863 and -1.191"}, {"measurement": "GBX2 tpm_KQ_NTZ", "setting": "[1]", "result": "0.2922 and 0.1832 and -0.01058"}, {"measurement": "GCNT3 tpm_KQ_NTZ", "setting": "[1]", "result": "0.5624 and 1.46 and 1.425"}, {"measurement": "GDPD3 tpm_KQ_NTZ", "setting": "[1]", "result": "0.1549 and 0.8212 and 1.086"}, {"measurement": "GPR19 tpm_KQ_NTZ", "setting": "[1]", "result": "-0.4052 and -1.088 and -0.1444"}, {"measurement": "H3C1 tpm_KQ_NTZ", "setting": "[1]", "result": "-0.4909 and -0.7381 and -0.1713"}, {"measurement": "HAS3 tpm_KQ_NTZ", "setting": "[1]", "result": "-0.7244 and -1.045 and -1.209"}, {"measurement": "HSD3B1 tpm_KQ_NTZ", "setting": "[1]", "result": "0.4147 and -0.0829 and 0.06266"}, {"measurement": "HSPB8 tpm_KQ_NTZ", "setting": "[1]", "result": "1.202 and 1.163 and 1.373"}, {"measurement": "IFITM10 tpm_KQ_NTZ", "setting": "[1]", "result": "0.594 and 0.6249 and 1.26"}, {"measurement": "IGF2BP1 tpm_KQ_NTZ", "setting": "[1]", "result": "-0.6156 and 0.2139 and -0.1353"}, {"measurement": "IGFBP4 tpm_KQ_NTZ", "setting": "[1]", "result": "-0.9714 and -1.052 and -1.107"}, {"measurement": "IGSF23 tpm_KQ_NTZ", "setting": "[1]", "result": "0.2138 and -0.14 and 0.153"}, {"measurement": "IL1RN tpm_KQ_NTZ", "setting": "[1]", "result": "0.4172 and 0.5103 and 0.3837"}, {"measurement": "IL21R tpm_KQ_NTZ", "setting": "[1]", "result": "0.1341 and 0.3531 and -0.6262"}, {"measurement": "IL32 tpm_KQ_NTZ", "setting": "[1]", "result": "0.1915 and 0.128 and 0.2784"}, {"measurement": "IL36RN tpm_KQ_NTZ", "setting": "[1]", "result": "0.2015 and -0.02405 and -0.08881"}, {"measurement": "KDELR2 tpm_KQ_NTZ", "setting": "[1]", "result": "0.386 and 0.3336 and 0.3028"}, {"measurement": "KIAA0319 tpm_KQ_NTZ", "setting": "[1]", "result": "0.8897 and 0.7646 and 0.5228"}, {"measurement": "KLK9 tpm_KQ_NTZ", "setting": "[1]", "result": "-0.2259 and -0.6416 and -0.6693"}, {"measurement": "KRT17 tpm_KQ_NTZ", "setting": "[1]", "result": "-0.1797 and -0.2377 and -0.2552"}, {"measurement": "LGALS12 tpm_KQ_NTZ", "setting": "[1]", "result": "-0.7737 and -0.7092 and -1.317"}, {"measurement": "LILRB3 tpm_KQ_NTZ", "setting": "[1]", "result": "-0.849 and 0.2071 and -0.3616"}, {"measurement": "LOC105373989 tpm_KQ_NTZ", "setting": "[1]", "result": "0.1747 and 0.1405 and -0.01628"}, {"measurement": "LOC107985532 tpm_KQ_NTZ", "setting": "[1]", "result": "-0.4716 and -1.399 and -0.5849"}, {"measurement": "LRRK1 tpm_KQ_NTZ", "setting": "[1]", "result": "0.2201 and 0.2241 and -0.1686"}, {"measurement": "LTB tpm_KQ_NTZ", "setting": "[1]", "result": "0.298 and 0.1911 and 0.1215"}, {"measurement": "LY6K tpm_KQ_NTZ", "setting": "[1]", "result": "0.361 and 0.2663 and 0.3215"}, {"measurement": "MAP2 tpm_KQ_NTZ", "setting": "[1]", "result": "1.038 and 0.7956 and 0.3906"}, {"measurement": "MCM4 tpm_KQ_NTZ", "setting": "[1]", "result": "-0.8715 and -0.9161 and -1.036"}, {"measurement": "METRNL tpm_KQ_NTZ", "setting": "[1]", "result": "-0.141 and -0.421 and -0.3102"}, {"measurement": "MFSD2A tpm_KQ_NTZ", "setting": "[1]", "result": "0.8546 and 0.3607 and 0.5375"}, {"measurement": "MMP9 tpm_KQ_NTZ", "setting": "[1]", "result": "0.4129 and 0.2062 and 0.3482"}, {"measurement": "MNX1 tpm_KQ_NTZ", "setting": "[1]", "result": "0.2275 and -0.9 and 0.1118"}, {"measurement": "MROH8 tpm_KQ_NTZ", "setting": "[1]", "result": "-1.87 and -0.2315 and 0.3664"}, {"measurement": "MVP tpm_KQ_NTZ", "setting": "[1]", "result": "0.5977 and 0.4827 and 0.3544"}, {"measurement": "MYBL2 tpm_KQ_NTZ", "setting": "[1]", "result": "-0.1727 and -0.165 and -0.155"}, {"measurement": "NAV1 tpm_KQ_NTZ", "setting": "[1]", "result": "0.9647 (2×) and 0.5494"}, {"measurement": "NECTIN4 tpm_KQ_NTZ", "setting": "[1]", "result": "1.229 and 1.239 and 1.198"}, {"measurement": "NKD1 tpm_KQ_NTZ", "setting": "[1]", "result": "0.09084 and 0.3652 and -0.1886"}, {"measurement": "NLRC5 tpm_KQ_NTZ", "setting": "[1]", "result": "0.9096 and 0.9955 and 0.3927"}, {"measurement": "NR4A2 tpm_KQ_NTZ", "setting": "[1]", "result": "-0.3921 and 0.001744 and -0.3514"}, {"measurement": "NRK tpm_KQ_NTZ", "setting": "[1]", "result": "-0.02829 and -0.09407 and -0.0544"}]}]}
